Measured values taken from patent publication US20140303090A1, “Smac Mimetic Therapy” (TETRALOGIC PHARMACEUTICALS CORPORATION, priority 2013, published 2014).
Like-named read-outs stand apart in the source and are kept apart here. Blank lines part the entries; values can stand above or below the molecule they belong to.

How the values were obtained:
[1] = test system: MDP-mediated NF-κB-luc (NOD2); assay: MDP-stimulated NF-kB luciferase reporter gene assay (NOD2 signaling) in HCT116 cells; assay type: cell-based, human; conditions: for Inhibition of MDP-mediated NF-κB-luc, % Inhibition: 10 μM Smac mimetic, HCT116 cells
Description: (§1) To assay effects on XIAP E3 ubiquitin ligase activity manifested as NF-kB activation, we established both DAP- and MDP-stimulated luciferase reporter gene assays in which Smac mimetics are evaluated in cells at a single 10 μM drug concentration. Specifically, we developed stable cell lines with HCT116 cells (human colon cancer) that carry the NF-kB-luciferase reporter gene under the regulation of NF-kB promoter activation elements. The assay was carried out as follows: • 1. HCT116 (3-3) cells were cultured in white wall 96-wells plate (50,000 cells/50 μL/well) for overnight at 37° C. • 2. […] The luciferase activity in each well was measured by using Steady-Glo® Luciferase Assay System (Promega Corp.). 48 μL of luminescence detection reagent was added in each well, followed by brief agitation. The plate was left in dark for 15 minutes and then the luminescence activity was measured by using microplate reader Victor2 (PerkinElmer Life and Analytical Science, Shelton, Conn.). • 4. Calculation:
(§2) Luciferase activity in no ligand (i.e., […]) treatment wells=background (BG)
(§3) Luciferase activity in ligand only treatment wells=positive control (PC)
(§4) Luciferase activity in Smac mimetic (SM)+ligand treatment wells=Test • i) Test<PC
(§5) Inhibitory activity by SM(%)=100×[(PC−Test)/(PC−BG)] • ii) Test>PC
(§6) Activation by SM(%)=100×[(Test−BG)/(PC−BG)]

[2] = test system: DAP-mediated NF-κB-luc (NOD1); assay: DAP-stimulated NF-kB luciferase reporter gene assay (NOD1 signaling) in HCT116 cells; assay type: cell-based, human; conditions: for Inhibition of DAP-mediated NF-κB-luc, % Inhibition: 10 μM Smac mimetic, HCT116 cells
Description: as §1, §2, §3, §4, §5, §6

[3] = biological target: XIAP BIR3 (Homo sapiens, UniProt P98170); assay: Fluorescence polarization displacement assay, XIAP BIR3
XIAP BIR3, sequence (P98170 241-356 limits assumed): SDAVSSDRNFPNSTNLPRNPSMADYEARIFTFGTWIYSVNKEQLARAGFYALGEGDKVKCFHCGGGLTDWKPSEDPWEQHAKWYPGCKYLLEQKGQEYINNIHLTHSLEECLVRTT
Description: (§7) To establish protein-ligand binding affinity, we employed a fluorescence polarization assay. This assay monitored the displacement of an IAP binding motif (IBM)-containing peptide, Abu-RPFK(5-carboxyfluorescein)-NH2, from the Type III BIR domains of cIAP1, cIAP2, XIAP, and ML-IAP.

[4] = test system: xenograft; conditions: cited from earlier work
[5] = cited from earlier work
[6] = biological target: TRAF2-bound cIAP-2 (Homo sapiens, UniProt Q13489); assay: Anti-TRAF2 co-immunoprecipitation and western blot of TRAF2-bound cIAP-2 in GFP-cIAP-2 A375 cells; conditions: 100 nM, 0 to 240 minutes
TRAF2-bound cIAP-2, sequence (Q13489 whole entry): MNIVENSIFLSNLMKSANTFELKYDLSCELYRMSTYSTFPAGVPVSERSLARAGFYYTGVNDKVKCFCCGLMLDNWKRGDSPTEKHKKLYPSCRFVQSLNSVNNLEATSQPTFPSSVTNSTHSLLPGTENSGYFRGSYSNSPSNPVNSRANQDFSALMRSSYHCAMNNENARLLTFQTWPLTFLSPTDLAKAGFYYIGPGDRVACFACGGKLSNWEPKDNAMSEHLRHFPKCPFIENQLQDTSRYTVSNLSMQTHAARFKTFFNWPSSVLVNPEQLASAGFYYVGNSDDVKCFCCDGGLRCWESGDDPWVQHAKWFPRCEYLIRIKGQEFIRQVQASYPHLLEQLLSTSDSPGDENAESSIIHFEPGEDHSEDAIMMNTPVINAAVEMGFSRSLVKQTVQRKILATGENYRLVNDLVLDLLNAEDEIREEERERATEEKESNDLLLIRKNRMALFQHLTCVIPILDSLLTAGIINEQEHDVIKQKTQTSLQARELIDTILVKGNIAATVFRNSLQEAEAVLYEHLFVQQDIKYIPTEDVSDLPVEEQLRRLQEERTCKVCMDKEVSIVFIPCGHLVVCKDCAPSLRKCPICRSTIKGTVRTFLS
TRAF2-bound cIAP-2, sequence (Q12933 whole entry partner): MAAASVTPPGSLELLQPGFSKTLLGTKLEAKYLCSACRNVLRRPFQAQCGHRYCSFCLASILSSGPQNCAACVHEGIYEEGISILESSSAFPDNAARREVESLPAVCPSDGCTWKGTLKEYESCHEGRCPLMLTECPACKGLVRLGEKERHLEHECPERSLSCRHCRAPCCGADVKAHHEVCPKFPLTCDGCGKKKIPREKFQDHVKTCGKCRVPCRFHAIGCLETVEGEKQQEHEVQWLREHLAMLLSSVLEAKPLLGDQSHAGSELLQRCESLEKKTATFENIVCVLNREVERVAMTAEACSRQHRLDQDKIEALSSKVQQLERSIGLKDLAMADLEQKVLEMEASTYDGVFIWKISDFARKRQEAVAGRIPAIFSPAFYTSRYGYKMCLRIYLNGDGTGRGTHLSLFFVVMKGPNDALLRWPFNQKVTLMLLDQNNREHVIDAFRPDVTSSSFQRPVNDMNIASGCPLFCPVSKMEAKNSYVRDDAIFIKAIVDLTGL
Description: (§8) The stable cell lines expressing GFP-cIAP-1 or GFP-cIAP-2 were cultured in 10 cm dishes in sub-confluence overnight. […] The lysate was cleared by centrifugation (14000 rpm) at 4° C. for 10 minutes and the supernatant was subjected to the co-immunoprecipitation experiment. The protein concentration of the supernatant was measured by using Bradford reagent (Sigma). Co-immunoprecipitation was carried out with 600 μg of the total protein and 1 μg of anti-TRAF 2 antibody (Cell Signaling). After the incubation at 4° C. for overnight, 25 μL protein A/G beads (Invitrogen) was added to precipitate the immunocomplex. The beads were washed with the lysis buffer three times, followed by dissolving with 25 μL SDS-Loading buffer (Invitrogen).
(§9) The membrane was soaked with the blocking buffer (LICOR) for 30 minutes, followed by incubation with the primary antibodies, cIAP-1 and cIAP-2 (R&D Systems), at 4° C. for overnight. After the incubation, the membrane was washed three times with TBS-T buffer (Invitrogen) and incubated with IRDye anti-goat antibody (LICOR) at 37° C. for 45 minutes. Following 5 times washings, the membrane was scanned by The Odyssey Infrared Imaging System (LICOR).

[7] = biological target: cytoplasmic cIAP-2 (Homo sapiens, UniProt Q13489); assay: Western blot of cytoplasmic cIAP-2 in GFP-cIAP-2 A375 cells; conditions: 100 nM, 0 to 240 minutes
cytoplasmic cIAP-2, sequence (Q13489 whole entry): as the sequence (Q13489 whole entry) above
Description: as §8, §9

[8] = biological target: cIAP-1 (cytoplasmic and TRAF2-bound) (Homo sapiens, UniProt Q13490); assay: Co-immunoprecipitation and western blot, cytoplasmic versus TRAF2-bound cIAP-1 in GFP-cIAP-1 A375 cells; conditions: 100 nM, 0 to 240 minutes, visual
cIAP-1 (cytoplasmic and TRAF2-bound), sequence (Q13490 whole entry): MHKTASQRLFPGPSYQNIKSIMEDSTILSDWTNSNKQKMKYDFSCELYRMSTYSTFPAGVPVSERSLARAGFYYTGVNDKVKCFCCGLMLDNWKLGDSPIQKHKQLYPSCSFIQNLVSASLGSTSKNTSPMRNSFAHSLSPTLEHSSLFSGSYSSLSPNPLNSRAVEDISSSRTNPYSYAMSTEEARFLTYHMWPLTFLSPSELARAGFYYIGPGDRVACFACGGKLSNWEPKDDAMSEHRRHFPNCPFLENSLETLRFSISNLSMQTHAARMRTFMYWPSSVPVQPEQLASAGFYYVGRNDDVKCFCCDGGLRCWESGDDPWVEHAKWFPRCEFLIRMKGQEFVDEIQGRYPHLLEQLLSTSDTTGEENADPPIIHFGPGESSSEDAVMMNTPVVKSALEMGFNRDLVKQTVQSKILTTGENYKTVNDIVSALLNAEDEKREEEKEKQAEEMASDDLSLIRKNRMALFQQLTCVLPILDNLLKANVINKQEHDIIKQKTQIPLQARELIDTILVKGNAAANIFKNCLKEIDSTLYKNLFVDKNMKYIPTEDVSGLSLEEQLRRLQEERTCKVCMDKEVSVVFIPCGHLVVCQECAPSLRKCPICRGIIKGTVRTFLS
Description: as §8, §9

[9] = test system: Xiap−/− murine BMDMs; assay: IL-1β secretion from LPS-primed XIAP knockout bone marrow-derived macrophages; assay type: cell-based; conditions: 24 h
Description: We thus evaluated a selection of Smac-mimetics in both LPS-primed wild-type (WT) and XIAP knockout (Xiap^−/−) murine BMDMs to assess their capacity to induce the secretion of IL-1β following treatment with Smac-mimetic (FIG. 4).
WT and Xiap^−/− BMDMs were primed with LPS±the indicated concentration of Smac-mimetics for 24 h. WT BMDM results are presented as the mean±SEM (n=3 biological independent repeats).

[10] = biological target: T1, GFP-cIAP2 (Homo sapiens, UniProt Q13489); assay: GFP-cIAP2 degradation assay (loss of GFP signal, flow cytometry); assay type: cell-based
T1 construct: expressed in transfected cells
T1 sequence (Q13489 whole entry): as the sequence (Q13489 whole entry) above
Description: In this assay, treatment of GFP-cIAP-expressing melanoma cell line A375 with Smac mimetic, Compound 15, for two hours, results in degradation of cIAP-1 and cIAP-2 with concomitant loss of GFP-signal.

[11] = test system: WT murine BMDMs; assay: IL-1β secretion from LPS-primed WT bone marrow-derived macrophages; assay type: cell-based; conditions: 24 h
Description: Given the heightened activity of 2 versus 1 on cIAP2, we speculated that the improved tolerability of 1 might also be associated with reduced antagonism of XIAP functional activity in this system. We thus evaluated a selection of Smac-mimetics in both LPS-primed wild-type (WT) and XIAP knockout (Xiap^−/−) murine BMDMs to assess their capacity to induce the secretion of IL-1β following treatment with Smac-mimetic (FIG. 4).
WT and Xiap^−/− BMDMs were primed with LPS±the indicated concentration of Smac-mimetics for 24 h. WT BMDM results are presented as the mean±SEM (n=3 biological independent repeats). […] Total levels of IL-1β induced by Smac-mimetics in these assays varied but the trend was identical.

[12] = Tolerability; conditions: in vivo
Description: . Binding of IAP antagonists to cIAP1 proteins induces a conformational rearrangement that exposes the RING domain. Once exposed, the RING domain dimerizes and E3 ubiquitin ligase activity is activated. Using a range of assays that evaluated cIAP1 stability; NF-κB activation; cIAP1 oligomeric state; […]. Birinapant-induced loss of cIAPs correlated with inhibition of TNF-mediated NF-κB activation, caspase activation, tumor cell killing, and tumor regression. Birinapant was well-tolerated. […]. […]; (ii.) decreased affinity for XIAP BIR3; (iii.) decreased ability to inhibit XIAP-dependent NOD signaling, despite its activity in an XIAP-dependent caspase-3 activation assay; and, (iv.) decreased pro-inflammatory IL-1β secretion. […]

[13] = test system: TNF-mediated NF-κB-luc
[14] = biological target: T1, GFP-cIAP2; assay: GFP-cIAP2 degradation assay (loss of GFP signal, flow cytometry); assay type: cell-based; conditions: read-out: ΔGFP-cIAP2 EC50, 24 h
[15] = biological target: cIAP2 BIR3 (Homo sapiens, UniProt Q13489); assay: Fluorescence polarization displacement assay, cIAP2 BIR3; conditions: for Ki: read-out: cIAP2 BIR3, Ki
cIAP2 BIR3, sequence (Q13489 238-349 limits assumed): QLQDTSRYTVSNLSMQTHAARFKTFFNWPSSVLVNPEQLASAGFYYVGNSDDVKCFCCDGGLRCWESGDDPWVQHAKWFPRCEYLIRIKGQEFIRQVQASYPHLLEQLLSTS
Description: as §7

[16] = read-out: ΔGFP-cIAP2 EC50, 2 h, 2 h, A375 cells

- Kd [3]: < 1 nM
SMILES: CN[C@@H](C)C(=O)N[C@H](C(=O)N1C[C@@H](O)C[C@H]1Cc1c(Cc2[nH]c3cc(F)ccc3c2C[C@@H]2C[C@H](O)CN2C(=O)[C@@H](NC(=O)[C@H](C)NC)C(C)(C)C)[nH]c2cc(F)ccc12)C(C)(C)C [(11)]
- Inhibition of MDP-mediated NF-κB-luc, % Inhibition [1]: 100 (n = 2) %
- Inhibition of DAP-mediated NF-κB-luc, % Inhibition [2]: 100 (n = 1) %

- Kd ([3]; read-out: XIAP BIR3 Kd): < 1 nM
SMILES: CN[C@@H](C)C(=O)N[C@H](C(=O)N1C[C@@H](O)C[C@H]1Cc1c(Cc2[nH]c3cc(F)ccc3c2C[C@@H]2C[C@H](O)CN2C(=O)[C@@H](NC(=O)[C@H](C)NC)C(C)(C)C)[nH]c2cc(F)ccc12)C(C)(C)C [(12)]
- Inhibition of MDP-mediated NF-κB-luc, % Inhibition [1]: 98 (+/−2) %
- Inhibition of DAP-mediated NF-κB-luc, % Inhibition [2]: 99 (+/−2) %

SMILES: CN[C@@H](C)C(=O)N[C@H](C(=O)N1C[C@@H](O)C[C@H]1Cc1c(Cc2[nH]c3cc(F)ccc3c2C[C@@H]2C[C@H](O)CN2C(=O)[C@@H](NC(=O)[C@H](C)NC)C(C)(C)C)[nH]c2cc(F)ccc12)C(C)(C)C [(13)]
- Inhibition of MDP-mediated NF-κB-luc, % Inhibition [1]: No inhibition
- Inhibition of DAP-mediated NF-κB-luc, % Inhibition [2]: No inhibition

SMILES: CN[C@@H](C)C(=O)N[C@H](C(=O)N1C[C@@H](O)C[C@H]1Cc1c(Cc2[nH]c3cc(F)ccc3c2C[C@@H]2C[C@H](O)CN2C(=O)[C@@H](NC(=O)[C@H](C)NC)C(C)(C)C)[nH]c2cc(F)ccc12)C(C)(C)C [(14)]
- Inhibition of MDP-mediated NF-κB-luc, % Inhibition [1]: 86 (+/−9) %
- Inhibition of DAP-mediated NF-κB-luc, % Inhibition [2]: 74 (+/−14) %

SMILES: CN[C@@H](C)C(=O)N[C@H](C(=O)N1C[C@@H](O)C[C@H]1Cc1c(-c2[nH]c3cc(F)ccc3c2C[C@@H]2C[C@H](O)CN2C(=O)[C@@H](NC(=O)[C@H](C)NC)[C@@H](C)OC)[nH]c2cc(F)ccc12)[C@@H](C)OC [Compound 5]
- antitumor activity compared to Compound 15 [4]: comparable antitumor activity
- tolerability in rats compared to Compound 15 [5]: less well-tolerated
- degradation of TRAF2-bound cIAP-2 [6]: degraded
- degradation of cytoplasmic cIAP-2 [7]: degraded
- extent of degradation of cytoplasmic cIAP-1 versus cIAP-1 bound to TRAF2 [8]: approximately the same

SMILES: CC[C@H](NC(=O)[C@H](C)NC)C(=O)N1C[C@@H](O)C[C@H]1Cc1c(-c2[nH]c3cc(F)ccc3c2C[C@@H]2C[C@H](O)CN2C(=O)[C@H](CC)NC(=O)[C@H](C)NC)[nH]c2cc(F)ccc12 [birinapant (1), birinapant]
- IL-1β secretion in Xiap−/− BMDMs [9]: induced IL-1β secretion
- EC50 [10, 16]: 108 ± 46 nM
- degradation of TRAF2-bound cIAP-2 [6]: degraded
- degradation of cytoplasmic cIAP-2 [7]: substantially non-degraded
- Inhibition of MDP-mediated NF-κB-luc, % Inhibition ([1]; listed as 1): ca. 35%
- Inhibition of MDP-mediated NF-κB-luc, % Inhibition ([1]; listed as Birinapant (1)): 35 (+/−14) %
- Inhibition of MDP-mediated NF-KB-luc @ 2 h, % Inhibition [1]: 35 ± 14%
- IL-1β secretion from LPS-primed WT BMDMs [11]: no increase in IL-1β secretion
- Inhibition of DAP-mediated NF-κB-luc, % Inhibition ([2]; listed as 1): ca. 35%
- Inhibition of DAP-mediated NF-κB-luc, % Inhibition ([2]; listed as Birinapant (1)): 35 (+/−16) %
- Inhibition of DAP-mediated NF-KB-luc @ 2 h, % Inhibition ([2]; @ 2 h): 35 ± 16%
- tolerability [12]: well-tolerated
- EC50 [13]: 9 ± 5 nM
- EC50 [14]: 151 ± 86 nM
- reduction of affinity for cIAP2 BIR3 compared with Compound A [15]: approximately 40 fold
- Ki [15]: 36 nM
- Ki ([15]; listed as Birinapant): ~36 nM

SMILES: CC[C@H](NC(=O)[C@H](C)NC)C(=O)N1C[C@@H](O)C[C@H]1Cc1c(-c2[nH]c3cc(F)ccc3c2C[C@@H]2C[C@H](O)CN2C(=O)[C@@H](CC)NC(=O)[C@H](C)NC)[nH]c2cc(F)ccc12 [compound 3]
- reduced ability to degrade GFP-cIAP2 relative to 1 [10]: 100 fold
- DC50 [10, 16]: > 10 µM
- Inhibition of MDP-mediated NF-KB-luc @ 2 h, % Inhibition [1]: No
- EC50 [13]: 1730 ± 985 nM
- DC50 [14]: 4.93 ± 1.6 µM

- DC50 [10, 16]: 5.72 ± 0.157 µM
- EC50 [13]: 4980 ± 996 nM
- DC50 [14]: 5.54 ± 0.115 µM
SMILES: CC[C@@H](NC(=O)[C@H](C)NC)C(=O)N1C[C@@H](O)C[C@H]1Cc1c(-c2[nH]c3cc(F)ccc3c2C[C@@H]2C[C@H](O)CN2C(=O)[C@@H](CC)NC(=O)[C@H](C)NC)[nH]c2cc(F)ccc12 [compound 4]

- DC50 [10, 16]: > 10 µM
- EC50 [13]: > 10000 nM
- DC50 [14]: > 10 µM
SMILES: CC[C@@H](NC(=O)[C@@H](C)NC)C(=O)N1C[C@H](O)C[C@@H]1Cc1c(-c2[nH]c3cc(F)ccc3c2C[C@H]2C[C@@H](O)CN2C(=O)[C@@H](CC)NC(=O)[C@@H](C)NC)[nH]c2cc(F)ccc12 [compound 5, ent-birinapant]
